# In patent US7521527B2 (Societe de Conseils de Recherches et d'Applications …, priority 2003, dated 2009):
# Where a SMILES comes first, the peptide text is derived from it. [ ]: non-standard residue; d: D form. Aib = CC(C)(N)C(=O)O
# What was measured:
# [1] = test system: adult male Sprague-Dawley rats; test: In vivo assay G.1/G.2: insulin secretion after iv glucose challenge following sc injection; set-up: species or system rat; conditions: clear solution pH 4.0 with zinc (Preparation D), sc 75 μg/kg, fasted rats, iv glucose 1 g/kg at 0.25-24 h
# Method: The day prior to the experiment, adult male Sprague-Dawley rats (Taconic, Germantown, N.Y.) that weighed approximately 300-350g were implanted with a right atrial jugular cannula under chlorohydrate anesthetic. The rats were then fasted for 18 hours prior to the injection of the appropriate test composition or vehicle control at time 0. The rats continued to be fasted throughout the entire experiment.
# At time zero the rats were injected subcutaneously (sc) either with (a) the compound of Example 1 (Aib^8,^35, Arg^26,^34, Phe^31)hGLP-1(7-36)NH2) at pH 4.0 as a clear solution (i.e., the solution of Preparation D.), or (b) the compound of Example 1 at pH 7.0 as a suspension or gel (i.e., the suspension or gel of Preparation E.). […] At the appropriate time after the sc injections a 500 μl blood sample was withdrawn via the intravenous (iv) cannula and the rats were given an iv glucose challenge to test for the presence of enhanced insulin secretion. The times of the glucose challenge were 0.25, 1, 6, 12 and 24 hours post-compound injection. After the initial blood sample was withdrawn glucose (1 g/kg) was injected iv and flushed in with 500 μl heparinized saline (10U/mL). […] The amount of insulin in each sample was determined using a rat insulin enzyme-linked immunosorbant assay (ELISA) kit (American Laboratory Products Co., Windham, N.H.). […]
# [2] = Aqueous solubility of compound vs zinc concentration; type: physicochemical; conditions: aqueous saline, pH 7.0, room temperature
# Method: Compounds that may advantageously be used to practice the invention can be and were tested to determine their solubility in pH 7 water at different zinc concentrations using the following procedure.
# A stock zinc solution was prepared by dissolving ZnCl2 in de-ionized water to a concentration of 100 mg/ml and adjusting the pH to 2.7 using HCl. Solutions having various ZnCl2 concentrations (“Zn Test Solutions”) were prepared by making appropriate dilutions of the stock solution.
# 1 mg of the compound of Example 1 was dissolved in 250 μl of each Zn Test Solution to yield a solution having 4 mg/ml of the Example 1 compound. […] The precipitation solution was centrifuged and the mother liquor analyzed using HPLC. The UV absorption area of test compound peak was measured and the concentration of the test compound in the mother liquor was determined via comparison to a calibration curve.
# As a representative example of a compound that may be used to practice the invention, the compound of Example 1 was tested in the immediately foregoing assay and the following results were obtained (aqueous saline, pH 7.0, room temperature): […]
"solubility ([2]; pH 7, ZnCl2 concentration 0 μg/mL)","solubility ([2]; pH 7, ZnCl2 concentration 80 μg/mL)","solubility ([2]; pH 7, ZnCl2 concentration 500 μg/mL)","solubility ([2]; pH 7, ZnCl2 concentration 1000 μg/mL)","solubility ([2]; pH 7, ZnCl2 concentration 1500 μg/mL)","solubility ([2]; pH 7, ZnCl2 concentration 2500 μg/mL)",Molecule,duration of sustained insulin-enhancing activity inducible by glucose injection [1]
,,,,,,"(Aib^8,35)hGLP1(7-36)NH2",24 h
53.9 µg/mL,5.9 µg/mL,5.6 µg/mL,9.7 µg/mL,9.7 µg/mL,11 µg/mL,"CC[C@H](C)[C@H](NC(=O)[C@H](Cc1ccccc1)NC(=O)[C@H](CCC(=O)O)NC(=O)[C@H](CCCNC(=N)N)NC(=O)[C@H](C)NC(=O)[C@H](C)NC(=O)[C@H](CCC(N)=O)NC(=O)CNC(=O)[C@H](CCC(=O)O)NC(=O)[C@H](CC(C)C)NC(=O)[C@H](Cc1ccc(O)cc1)NC(=O)[C@H](CO)NC(=O)[C@H](CO)NC(=O)[C@@H](NC(=O)[C@H](CC(=O)O)NC(=O)[C@H](CO)NC(=O)[C@@H](NC(=O)[C@H](Cc1ccccc1)NC(=O)[C@@H](NC(=O)CNC(=O)[C@H](CCC(=O)O)NC(=O)C(C)(C)NC(=O)[C@@H](N)Cc1c[nH]cn1)[C@@H](C)O)[C@@H](C)O)C(C)C)C(=O)N[C@@H](C)C(=O)N[C@@H](Cc1ccccc1)C(=O)N[C@@H](CC(C)C)C(=O)N[C@H](C(=O)N[C@@H](CCCNC(=N)N)C(=O)NC(C)(C)C(=O)N[C@@H](CCCNC(=N)N)C(N)=O)C(C)C [Example 1, (Aib^8,^35, Arg^26,^34, Phe^31)hGLP-1(7-36)NH2] (H-H[Aib]EGTFTSDVSSYLEGQAAREFIAFLVR[Aib]R-NH2)",
